In patent publication US20090305894A1, “use of sulfonanilides as herbicide” (priority 2005, published 2009):

Key:
Type in all cases: in vivo
Glycine max = experiment: Herbicide damage to crops in dry field, spraying treatment on soil before sprouting (Test Example 4, Table 12); conditions: 80 g ai/ha, rated after 3 weeks
Description: (§1) The formulations of active compounds were obtained as emulsions by mixing 1 part by weight of the active compound with the carrier and emulsifier in the described amounts. The formulations were diluted with water so as to adjust a prescribed dosage.
(§2) In a greenhouse seeds of rice (cultivar: Balilla) and weeds (Brachiaria plantaginea, Cyperus esculntus, Cyperus iria L., Echinochloa colonum, Leptochloa chinensis, Ipomoea purpurea, and Sesbania exaltata) were inoculated on the surface layers of pots filled with 100 cm^2 of paddy field soil and covered with soil. Water was poured to produce wet state (water level 0 cm). The prescribed diluted solutions of the formulations of the respective active compounds obtained in the same manner as in Test Example 1 were sprayed on the soil of some pots on completion of the seeding and the solutions of the agents were sprayed over the plants from the above in the rest of the pots after the respective sample plants were grown in first- to third-1 eaf stage in the greenhouse. After one day from the treatment with the compound, water was poured in 3 cm depth. The herbicidal effects and herbicide damage on rice of the respective compounds were investigated after 3 weeks from the treatment. The herbicidal effect and herbicide damage on the rice were rated as 100% in the case of complete withering and 0% in the case of no herbicidal effect or no harm. When herbicidal effect was 80% or higher, it was determined to be practically applicable as herbicides. When the herbicide damage was 20% or lower, the safety of the herbicide was evaluated to be excellent.
(§3) In a greenhouse one seed each of crops in dry field (Triticum aestivum and Glycine max) and weeds (Echinochloa crus-gali and Setaria vividis) were inoculated in the surface layer in one pot filled with 16 cm^2 of dry field soil and covered with soil. The prescribed diluted solutions of the formulations of the respective active compounds obtained in the same manner as in Test Example 1 were sprayed to the soil upon the inoculation. The herbicidal effect and herbicide damage on crops of the respective compounds were investigated after 3 weeks from the treatment. Evaluations of the herbicidal effect and herbicide damage were carried out in the same manner as in Test Example 3. As the representative example, the test results of compound No. 1 and 24, and the comparative compound C-1 are shown in Table 12.

Triticum aestivum [1] = experiment: as above; conditions: 80 g ai/ha, rated after 3 weeks
Description: as §1, §2, §3

Echinochloa crus-gali = experiment: Herbicidal effect on weeds in dry field, spraying treatment on soil before sprouting (Test Example 4, Table 12); conditions: 80 g ai/ha, spraying to soil before sprouting, rated after 3 weeks
Description: as §1, §2, §3

Setaria vividis = experiment: as above; conditions: 80 g ai/ha, spraying to soil before sprouting, rated after 3 weeks
Description: as §1, §2, §3

Triticum aestivum [2] = experiment: Herbicide damage to crops in dry field, spraying treatment to stems and leaves after sprouting (Test Example 5, Table 13); conditions: 80 g ai/ha, rated after 3 weeks
Description: as §1
as §2, with “The herbicidal effects and herbicide damage on rice of the respective compounds were investigated after 3 weeks from the treatment. The herbicidal effect and herbicide damage on the rice were rated as 100% in the case of complete withering and 0% in the case of no herbicidal effect or no harm.” left out, “excellent. […]” for “excellent.”

Veronica persica = experiment: Herbicidal effect on weeds in dry field, spraying treatment to stems and leaves after sprouting (Test Example 5, Table 13); conditions: 80 g ai/ha, rated after 3 weeks
Description: as §1, §2
(§4) In a green house one seed each of crops in dry field (Triticum aestivum) and weeds (Veronica persica and Viola mandshurica) were inoculated in the surface layer in one pot filled with 16 cm^2 of dry field soil and covered with soil. After the sample plants were grown to second- and third-leaf stages at the greenhouse, the prescribed diluted solutions of the formulations of the respective active compounds obtained in the same manner as in Test Example 1 were sprayed over the plants from the above. The herbicidal effect and herbicide damage on crops of the respective compounds were investigated after 3 weeks from the treatment. Evaluations of the herbicidal effect and herbicide damage were carried out in the same manner as in Test Example 3.

Viola mandshurica = experiment: as above; conditions: 80 g ai/ha, rated after 3 weeks
Description: as §1, §2, §4

[3] = test system: Scirpus juncoides Roxburgh (resistant to sulfonylurea type herbicide); experiment: Herbicidal efficacy test to weeds resistant to sulfonylurea type herbicide (Test Example 1, applied on water surface, Table 8); conditions: 60 g ai/ha, applied on water surface at beginning of sprouting, rated after 3 weeks; 100% = complete withering, 0% = no effect
Description: (§5) Preparation of formulation of active compound
(§6) Carrier: DMF 5 parts by weight
(§7) Emulsifier: benzyloxypolyglycol ether 1 part by weight
as §1
(§8) In a greenhouse respective seeds of Scirpus juncoides Roxburgh (from Hokkaido, Japan) and Lindernia procumbens Philcox (from Saitama, Japan), which are confirmed to have resistance to a sulfonylurea type herbicide, were inoculated in pots filled with 500 cm^2 of paddy field soil and water was poured to the pot in about 2 to 3 cm depth. At the beginning of sprouting of the weeds, prescribed diluted solutions of the formulations of the respective active compounds obtained by the above-mentioned manner were applied on the water surface. After the treatment water depth of 3 cm was kept. The herbicidal effect was investigated after 3 weeks of the treatment. The herbicidal effect was rated as 100% in the case of complete withering and 0% in the case of no herbicidal effect. When the herbicidal effect was 80% or higher, the practical effectiveness as herbicides is recognized. As the representative examples, the test results of the compound Nos. 1, 3, 4, 5, 6, 7, 13, 70, 127, 128 and 130 are shown in Table 8.

rice (cultivar: Balilla) [4] = experiment: Irrigated directly seeded paddy rice, herbicide damage, spraying to soil before sprouting (Test Example 3, Table 10); conditions: 20 g ai/ha, rated after 3 weeks
Description: as §1, §2

Brachiaria plantaginea [5] = experiment: Irrigated directly seeded paddy rice, herbicidal effect, spraying to soil before sprouting (Test Example 3, Table 10); conditions: 20 g ai/ha, rated after 3 weeks
Description: as §1, §2

Cyperus esculntus [6] = experiment: as above; conditions: 20 g ai/ha, rated after 3 weeks
Description: as §1, §2

Cyperus iria L. [7] = experiment: as above; conditions: 20 g ai/ha, rated after 3 weeks
Description: as §1, §2

Echinochloa colonum [8] = experiment: as above; conditions: 20 g ai/ha, rated after 3 weeks
Description: as §1, §2

Ipomoea purpurea [9] = experiment: as above; conditions: 20 g ai/ha, rated after 3 weeks
Description: as §1, §2

Leptochloa chinensis [10] = experiment: as above; conditions: 20 g ai/ha, rated after 3 weeks
Description: as §1, §2

Sesbania exaltata [11] = experiment: as above; conditions: 20 g ai/ha, rated after 3 weeks
Description: as §1, §2

rice (cultivar: Balilla) [12] = experiment: Irrigated directly seeded paddy rice, herbicide damage, spraying to stems and leaves after sprouting (Test Example 3, Table 11); conditions: 20 g ai/ha, rated after 3 weeks
Description: as §1, §2

Brachiaria plantaginea [13] = experiment: Irrigated directly seeded paddy rice, herbicidal effect, spraying to stems and leaves after sprouting (Test Example 3, Table 11); conditions: 20 g ai/ha, rated after 3 weeks
Description: as §1, §2

Cyperus esculntus [14] = experiment: as above; conditions: 20 g ai/ha, rated after 3 weeks
Description: as §1, §2

Cyperus iria L. [15] = experiment: as above; conditions: 20 g ai/ha, rated after 3 weeks
Description: as §1, §2

Echinochloa colonum [16] = experiment: as above; conditions: 20 g ai/ha, rated after 3 weeks
Description: as §1, §2

Ipomoea purpurea [17] = experiment: as above; conditions: 20 g ai/ha, rated after 3 weeks
Description: as §1, §2

Leptochloa chinensis [18] = experiment: as above; conditions: 20 g ai/ha, rated after 3 weeks
Description: as §1, §2

Sesbania exaltata [19] = experiment: as above; conditions: 20 g ai/ha, rated after 3 weeks
Description: as §1, §2

[20] = test system: Lindernia procumbens Philcox (resistant to sulfonylurea type herbicide); experiment: Herbicidal efficacy test to weeds resistant to sulfonylurea type herbicide (Test Example 1, applied on water surface, Table 8); conditions: 60 g ai/ha, applied on water surface at beginning of sprouting, rated after 3 weeks; 100% = complete withering, 0% = no effect
Description: as §5, §6, §7, §1, §8

COc1cc(OC)nc(C(O)c2cccc(F)c2NS(=O)(=O)C(F)(F)F)n1 (stereo not drawn) [C-1, reference compound]
30%: Herbicidal effect Viola mandshurica (Viola mandshurica)
20%: Herbicide damage Glycine max (Glycine max)
60%: Herbicidal effect Veronica persica (Veronica persica)
0%: Herbicide damage Triticum aestivum (Triticum aestivum [1]) | Herbicidal effect Echinochloa crus-gali (Echinochloa crus-gali) | Herbicidal effect Setaria vividis (Setaria vividis) | Herbicide damage Triticum aestivum (Triticum aestivum [2])

COc1nc(OC)nc(C(=O)c2cccc(F)c2N(C)S(=O)(=O)C(F)F)n1 [Compound No. 1]
90%: Herbicidal effect Ipomoea purpurea (Ipomoea purpurea [9]) | Herbicidal effect Ipomoea purpurea (Ipomoea purpurea [17]) | Herbicidal effect Echinochloa crus-gali (Echinochloa crus-gali)
0%: Herbicide damage Triticum aestivum (Triticum aestivum [1])
80%: Herbicidal effect Brachiaria plantaginea (Brachiaria plantaginea [5]) | Herbicidal effect Leptochloa chinensis (Leptochloa chinensis [18]) | Herbicidal effect Setaria vividis (Setaria vividis)
20%: Herbicide damage on Rice (rice (cultivar: Balilla) [4]) | Herbicide damage on Rice (rice (cultivar: Balilla) [12]) | Herbicide damage Glycine max (Glycine max)
100%: Herbicidal effect to sulfonylurea resistant weeds: Scirpus juncoides Roxburgh (from Hokkaido) [3] | Herbicidal effect Cyperus esculntus (Cyperus esculntus [6]) | Herbicidal effect Cyperusiria L. (Cyperus iria L. [7]) | Herbicidal effect Echinochloa colonum (Echinochloa colonum [8]) | Herbicidal effect Leptochloa chinensis (Leptochloa chinensis [10]) | Herbicidal effect Sesbania exaltata (Sesbania exaltata [11]) | Herbicidal effect Brachiaria plantaginea (Brachiaria plantaginea [13]) | Herbicidal effect Cyperus esculntus (Cyperus esculntus [14]) | Herbicidal effect Cyperusiria L. (Cyperus iria L. [15]) | Herbicidal effect Echinochloa colonum (Echinochloa colonum [16]) | Herbicidal effect Sesbania exaltata (Sesbania exaltata [19])

COc1cc(OC)nc(C(Cl)c2cccc(F)c2NS(=O)(=O)C(F)F)n1 (stereo not drawn) [compound 13]
100%: Herbicidal effect to sulfonylurea resistant weeds: Lindernia procumbens Philcox (from Saitama pref.) [20] | Herbicidal effect to sulfonylurea resistant weeds: Scirpus juncoides Roxburgh (from Hokkaido) [3] | Herbicidal effect Veronica persica (Veronica persica) | Herbicidal effect Viola mandshurica (Viola mandshurica)
0%: Herbicide damage Triticum aestivum (Triticum aestivum [2])
